# Publication PMC6222871, “Suppression of Hepatitis C Virus Genome Replication and Particle Production by a Novel Diacylglycerol Acyltransferases Inhibitor” (Molecules : A Journal of Synthetic Chemistry and Natural …, 2018)
# Experiments:
# [1] = tested on: HCV genotype 2a (Huh7.5-J6/JFH1); experiment: microbe, parasite or virus in culture; conditions: for EC50: Hepatitis C virus
# Excerpt: We previously synthesized and characterized twelve DGAT inhibitors with a different DGAT specificity. […] A922500, a commercially available DGAT-1-specific inhibitor was used as a positive control. In spite of a wealth of knowledge on an essential role of DGAT-1 in the HCV particle assembly and production, less attention has been paid to potential functions of DGATs in other steps of the viral life cycle. Therefore, we decided to examine effects of these twelve DGAT inhibitors on HCV particle production as well as RNA genome replication in parallel. For this purpose, we transfected Huh7.5 cells with in vitro-transcribed genotype 2a HCV RNAs (Huh7.5-J6/JFH1) and treated them with each DGAT inhibitor for 6 and 72 h at 10 μM. HCV genome replication as well as host GAPDH RNA levels was quantitated by a real-time RT-PCR analysis. For assessment of HCV particle production, we harvested and filtered the supernatant from Huh7.5-J6/JFH1 cells treated with DGAT inhibitors and incubated the supernatant with naïve huh7.5 cells for 72 h. Then, infectivity was measured by a real-time RT-PCR analysis.
# Quantitative real-time RT-PCR analysis to measure levels of HCV RNA and GAPDH was conducted as previously described. The cDNA synthesis and reverse transcription of miR-122 were performed by using Taqman quantitative RT-PCR (qRT-PCR) analysis. Taqmanq RT-PCR components including TaqMan miR122 probe, endogenous control U6 probe, TaqMan® MicroRNA reverse transcription Kit and TaqMan® universal master mix II were purchased from Thermo Fisher Scientific (Waltham, MA, USA)
# Huh7.5-J6/JFH-1 cells were seeded into 6-well plates at a density of 3 × 10^5 cells per well with DMEM containing 10% FBS. After 24 h, they are incubated with either DMSO, increasing concentrations of 10j for 3, 6, 12, 24, 48, and 72 h, or increasing concentrations of A922500 for 6, 12, 24, 48, and 72 h. Total RNAs were extracted from treated cells and virus-containing media were harvested at each time point. Naïve Huh7.5 cells were infected with these virus-containing media after concentration with centricons. Total RNAs were extracted from Huh7.5 cells infected with virus-containing media. qRT-PCR analysis was performed to measure effect of 10j on HCV replication and virus particle production.
# [2] = tested on: HCV genotype 2a (Huh7.5-J6/JFH1); experiment: HCV particle production: infectivity of supernatant on naive Huh7.5 cells by real-time RT-PCR; assay type: cell-based, hepatitis C virus; conditions: for effect on HCV particle production: 10 μM; for EC50: Hepatitis C virus, read-out: EC50 on HCV particle production
# Protocol: A922500, a commercially available DGAT-1-specific inhibitor was used as a positive control [10]. […] Therefore, we decided to examine effects of these twelve DGAT inhibitors on HCV particle production as well as RNA genome replication in parallel. For this purpose, we transfected Huh7.5 cells with in vitro-transcribed genotype 2a HCV RNAs (Huh7.5-J6/JFH1) [16] and treated them with each DGAT inhibitor for 6 and 72 h at 10 μM. HCV genome replication as well as host GAPDH RNA levels was quantitated by a real-time RT-PCR analysis. For assessment of HCV particle production, we harvested and filtered the supernatant from Huh7.5-J6/JFH1 cells treated with DGAT inhibitors and incubated the supernatant with naïve huh7.5 cells for 72 h. Then, infectivity was measured by a real-time RT-PCR analysis.
# Huh7.5-J6/JFH-1 cells were seeded into 6-well plates at a density of 3 × 10^5 cells per well with DMEM containing 10% FBS. […] Total RNAs were extracted from treated cells and virus-containing media were harvested at each time point. Naïve Huh7.5 cells were infected with these virus-containing media after concentration with centricons.
# [3] = tested on: Huh7.5 cells; experiment: visualization of intracellular LD by BODIPY in Huh7.5 cells; assay type: cell-based; conditions: 8 μM, 72 h
# Protocol: Huh7.5 cells were incubated in a 24-well plate on top of coverslip in the presence of either DMSO, 8 μM of 10j, or 20 μM of A922500 for 72 h. Then, Huh7.5 cells were fixed by using 4% paraformaldehyde for 15 min and stained with 0.001% BODIPY 493/503 D3922 (Invitrogen, Carlsbad, CA, USA) for 10 min. The coverslips were mounted onto slides using Prolong Gold anti-fade reagent with DAPI (Invitrogen, Carlsbad, CA, USA) Fluorescence were examined and captured by Nikon confocal laser scanning microscopic system. LD content was quantified using the ImageJ program.
# [4] = tested on: Huh7.5-J6/JFH1 cells; experiment: FACS analysis of LD-positive (BODIPY) J6/JFH1 cells; assay type: cell-based; conditions: 8 μM, 72 h, with BODIPY; DMSO 78.2%
# Protocol: Huh7.5-J6/JFH1 cells were plated onto a 10 cc plate (Corning) and supplemented with either DMSO or 8 μM of 10j for 72 h. Then, Huh7.5-J6/JFH1 cells were fixed by using 4% paraformaldehyde for 10 min and permeabilized using 0.1% saponin in PBS for 20 min. Huh7.5-J6/JFH1 cells were stained with 0.001% BODIPY 493/503 D3922 (Invitrogen) in saponin for 1 h at 4 °C. The FACSAriaIII (BD Biosciences, Franklin Lakes, NJ, USA) was used for the flow cytometric analysis as previously described.
# [5] = tested on: HCVcc particles (JFH1-NS5A-GFP); experiment: HCVcc infectivity and time-of-addition assay; assay type: cell-based, hepatitis C virus; conditions: pre-treatment (−2 h), co-treatment (0 h), post-treatment (+2 h); dose-dependent
# Protocol: In order to test the effects of 10j on the early viral functions, such as the viral entry and uncoating of the viral genome, we performed the “time of addition” experiment by using the cell culture-derived infectious HCVcc particles (JFH1-NS5A-GFP) (Figure 4A).
# The time-of-addition assay was conducted as previously reported [38]. Briefly, naïve Huh-7.5 cells were plated in 384-well plates and incubated with serially diluted 10j at specific time points during virus infection: pre-infection treatment; co-infection treatment; post-infection treatment. Afterwards, infected cells were incubated at 37 °C for 3 days in the presence of inhibitors. At 72 h post-infection, HCV infection rates and cytotoxicity were determined by the number of GFP positive cells and Hoechst 33,342 positive cell nuclei, a marker for cell viability, respectively, using fully automated confocal microscopy (Opera, PerkinElmer, Hamburg, Germany). The acquired images were analyzed by in-house developed software. Percentages of HCV inhibition were calculated using 1% DMSO-treated cells and 10 μM of sofosbuvir treated cells and were set to 0% and 100% inhibition, respectively. Experiments were conducted at least two-times independently and in triplicates.
# [6] = tested on: miR122; experiment: miR122 RT-PCR in Huh7.5-J6/JFH1 cells; assay type: cell-based; conditions: up to 8 μM, 72 h
# Excerpt: Since DGATs play an important role in maintaining liver-likeness in hepatocytes, the antiviral effect of 10j might be due to mere loss of this liver-specific character. […] In addition, HNF4α was also reported to be reduced in DGAT1-silenced cell lines. Therefore, we wished to test effects of 10j on HNF4α.
# [7] = tested on: DGATs (rat liver microsome); set-up: method as in PMID 23141914, PMID 23242135; conditions: cited from earlier work
# [8] = tested on: recombinant DGAT-1; set-up: method as in PMID 23242135; conditions: recombinant DGAT-1, [14C] oleoyl-CoA as acyl-donor; cited from earlier work
# [9] = tested on: HepG2 cells; set-up: method as in PMID 23242135; conditions: [14C] glycerol as substrate; cited from earlier work
# [10] = set-up: method as in PMID 23141914; conditions: cited from earlier work
smiles,measurement,setting,value
"O=C(NCc1ccco1)c1ccc2[nH]c(COc3ccc(C45CC6CC(CC(C6)C4)C5)cc3)nc2c1 [10j, 2-{[4-(adamant-1yl)phenoxy]methyl)-N-(furan-2-ylmethyl)-1H-benzo[d]imidazole-5-carboxamide]","T1/2, time required for reducing the viral RNAs by half","[1]; 8 μM, genotype 2a",35.8 h
same,effect on HCV genome replication,"[1]; 10 μM, 72 h (Figure 1C)",able to block both viral RNA genome replication and particle production
same,EC50,"[1]; 3 h, read-out: EC50 on HCV genome replication",> 10 µM
same,EC50,"[1]; 6 h, read-out: EC50 on HCV genome replication",> 10 µM
same,EC50,"[1]; 12 h, read-out: EC50 on HCV genome replication",8.5 µM
same,EC50,"[1]; 24 h, read-out: EC50 on HCV genome replication",3 µM
same,EC50,"[1]; 48 h, read-out: EC50 on HCV genome replication",3.6 µM
same,EC50,"[1]; 72 h, read-out: EC50 on HCV genome replication",2.7 µM
same,EC50,"[1]; GETYPE2A, 72 h, read-out: EC50 HCV RNA, reporter-free infectious clone",1.6 µM
same,EC50,"[1]; GETYPE2A, read-out: EC50 values required for inhibition of the HCV genome replication (summary)",1 to 2 µM
same,effect on HCV particle production,[2]; 6 h (Figure 1B),able to block HCV particle production
same,effect on HCV particle production,[2]; 72 h (Figure 1D),able to block both viral RNA genome replication and particle production
same,EC50,"[2]; Huh7.5, 3 h",1 µM
same,EC50,"[2]; Huh7.5, 6 h",1.7 µM
same,EC50,"[2]; Huh7.5, 12 h",0.4 µM
same,EC50,"[2]; Huh7.5, 24 h",0.4 µM
same,EC50,"[2]; Huh7.5, 48 h",0.7 µM
same,EC50,"[2]; Huh7.5, 72 h",0.2 µM
same,reduction in the level of LDs (BODIPY),[3],49%
same,relative number of LD-positive J6/JFH1 cells,[4],38.6%
same,infection of Huh7.5 cells with HCVcc particles,[5],all abrogated
same,expression levels of miR122,[6],increased levels of miR122
same,IC50,[7],4.4 µM
same,IC50,[8],9 µM
same,"TG % (10 μM in HepG2), relative [14C] triglyceride percentage",[9],45.0%
same,fat tissues,"[10]; mice fed with high-fat diet, versus control mice",significant decrease
same,high-density lipoprotein-cholesterol,[10]; mice,significant increase
same,"total TG, total cholesterol and low-density lipoprotein cholesterol in the blood",[10]; mice,decreased levels
